From US20060079453A1, “Hla binding peptides and their uses” (priority 2002, published 2006)
No end group written: not given here.

Assays:
Assay in all cases: biochemical
Type in all cases: binding
HLA-DR DRB1*0901 (DR9) = HLA-DR DRB1*0901 (DR9) (Homo sapiens, UniProt P01903+P01911, A100R/A103E/D57H/D86V/F55Y/F60I/F76Y/I96F/K127E/L162R/M171V/P40D/Q125H/Q99R/R33Q/R42F/S133A/S66N/T210M/V115G/W38K/Y107V/Y59G/Y89S); settings: DRB1 *0901
HLA-DR DRB1*0401 (DR4) = HLA-DR DRB1*0401 (DR4) (Homo sapiens, UniProt P01903+P01911, A100K/A169T/F76Y/I96L/K127E/L162R/M171V/N62H/P40V/Q125Y/R42H/S133A/S149N/S66Y/V115G/V209L/W38E); settings: DRB1 *0401
HLA-DR DRB5*0101 (DR51) = HLA-DR DRB5*0101 (DR51) (Homo sapiens, UniProt P01903+Q30154); settings: DRB5 *0101
HLA-DR DRB3*0101 (DR52) = HLA-DR DRB3*0101 (DR52) (Homo sapiens, UniProt P01903+P79483)
HLA-DR DRB1*0802 (DR8) = HLA-DR DRB1*0802 (DR8) (Homo sapiens, UniProt P01903+P01911, A100R/A103L/A169T/F76Y/H45Y/I96F/K41T/L162R/M171V/P40S/Q125H/Q178H/Q39Y/Q99D/R218S/R42G/S66Y/V115G/W38E)
HLA-DR DRB1*1101 (DR11) = HLA-DR DRB1*1101 (DR11) (Homo sapiens, UniProt P01903+P01911, A100R/A169T/A87E/I96F/K41T/L162R/M171V/P40S/Q125H/Q178H/Q39Y/Q99D/R42S/S66Y/T262R/V115G/W38E); settings: DRB1 *1101
HLA-DR DRB1*0101 (DR1) = HLA-DR DRB1*0101 (DR1) (Homo sapiens, UniProt P01903+P01911, A100R/D57E/F55L/F60I/F76Y/I96L/L162R/M171V/P40L/Q125E/R42F/V115G/Y59C); settings: DRB1 *0101
HLA-DR DRB1*0301 (DR3) = HLA-DR DRB1*0301 (DR3) (Homo sapiens, UniProt P01903+P01911, A100K/A102G/A103R/A169T/F55Y/I96L/K41T/L162R/M171V/P40S/Q125H/Q178H/Q39Y/R42S/S66N/T106N/T262R/W38E/Y61H)
HLA-DR DRB1*1501 (DR15) = HLA-DR DRB1*1501 (DR15) (Homo sapiens, UniProt P01903+P01911); settings: DRBI *1501
HLA-DR DRB1*0701 (DR7) = HLA-DR DRB1*0701 (DR7) (Homo sapiens, UniProt P01903+P01911, A100R/A102G/A103Q/D57E/D86V/E43K/F76Y/K127E/L162R/M171V/P40G/Q125H/Q99D/R33Q/R42Y/R54Q/S133A/S66F/T210M/V115G/Y107V/Y59L/Y89S); settings: DRB1 *0701
HLA-DR DRB4*0101 (DR53) = HLA-DR DRB4*0101 (DR53) (Homo sapiens, UniProt P01903+P13762, G164S); settings: DRB4 *0101
HLA-DR DRB1*1302 (DR13) = HLA-DR DRB1*1302 (DR13) (Homo sapiens, UniProt P01903+P01911, A100E/A169T/K41T/L162R/M171V/P40S/Q125H/Q178H/Q39Y/Q99D/R42S/S66N/T262R/V115G/W38E/Y61H); settings: DRBI *1302
Chain of HLA-DR DRB1*1302 (DR13) (P01903 26-254 limits assumed, other chains not shown): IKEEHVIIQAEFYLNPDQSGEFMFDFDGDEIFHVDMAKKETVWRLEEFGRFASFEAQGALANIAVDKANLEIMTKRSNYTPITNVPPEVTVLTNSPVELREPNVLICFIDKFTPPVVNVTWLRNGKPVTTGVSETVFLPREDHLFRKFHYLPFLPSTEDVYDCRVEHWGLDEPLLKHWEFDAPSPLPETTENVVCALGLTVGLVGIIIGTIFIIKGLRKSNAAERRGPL

Chain of HLA-DR DRB1*0301 (DR3) (P01903 26-254 limits assumed, other chains not shown): as above
Chain of HLA-DR DRB1*1101 (DR11) (P01903 26-254 limits assumed, other chains not shown): as above

Row | Compound | IC50 (HLA-DR DRB1*0901 (DR9)) | IC50 (HLA-DR DRB1*0401 (DR4)) | IC50 (HLA-DR DRB5*0101 (DR51)) | IC50 (HLA-DR DRB3*0101 (DR52)) | IC50 (HLA-DR DRB1*0802 (DR8)) | IC50 (HLA-DR DRB1*1101 (DR11)) | IC50 (HLA-DR DRB1*0101 (DR1)) | IC50 (HLA-DR DRB1*0301 (DR3)) | IC50 (HLA-DR DRB1*1501 (DR15)) | IC50 (HLA-DR DRB1*0701 (DR7)) | IC50 (HLA-DR DRB4*0101 (DR53)) | IC50 (HLA-DR DRB1*1302 (DR13))
1 | CC[C@H](C)[C@H](NC(=O)[C@@H](NC(=O)[C@H](Cc1c[nH]cn1)NC(=O)[C@@H](N)CC(C)C)C(C)C)C(=O)N[C@@H](CO)C(=O)N[C@@H](CC(N)=O)C(=O)N[C@@H](CC(=O)O)C(=O)N[C@H](C(=O)N[C@@H](CS)C(=O)N[C@@H](C)C(=O)N[C@@H](CCC(N)=O)C(=O)N[C@H](C(=O)N[C@@H](Cc1c[nH]cn1)C(=O)N1CCC[C@H]1C(=O)N[C@@H](CCC(N)=O)C(=O)O)C(C)C)C(C)C | 32700 nM | 790 nM | > 200000 nM | 1890 nM | > 123000 nM | > 50000 nM | 789 nM | 8320 nM | 22800 nM | 17500 nM | 1090 nM | –
2 | TTLLRALGAQKEAIS | 4610 nM | 339 nM | 21 nM | 33300 nM | 652 nM | 860 nM | 19 nM | 107000 nM | 89 nM | 4280 nM | – | 1510 nM
3 | TSITSLYQLENYTG | 46300 nM | 1630 nM | 16100 nM | 92300 nM | 14600 nM | 1010 nM | – | 96700 nM | – | 8370 nM | 1660 nM | > 17100 nM
4 | CC[C@H](C)[C@H](NC(=O)CNC(=O)[C@H](Cc1ccc(O)cc1)NC(=O)[C@H](CC(C)C)NC(=O)[C@H](CO)NC(=O)[C@H](CC(C)C)NC(=O)[C@H](CC(C)C)NC(=O)[C@H](CO)NC(=O)[C@@H](N)CC(C)C)C(=O)N[C@@H](Cc1c[nH]cn1)C(=O)N[C@@H](CCCCN)C(=O)N[C@@H](CCC(N)=O)C(=O)N[C@@H](CCCCN)C(=O)N[C@@H](CCC(=O)O)C(=O)N[C@@H](CCCCN)C(=O)O | 4960 nM | 4440 nM | 3.4 nM | > 15000 nM | 1640 nM | – | 656 nM | > 81800 nM | 58 nM | > 35700 nM | 772 nM | > 35000 nM
5 | CC[C@H](C)[C@H](NC(=O)[C@H](Cc1ccccc1)NC(=O)[C@H](Cc1c[nH]c2ccccc12)NC(=O)CNC(=O)[C@H](Cc1ccccc1)NC(=O)[C@H](CC(C)C)NC(=O)[C@H](Cc1ccccc1)NC(=O)CNC(=O)[C@@H](N)CC(C)C)C(=O)N[C@@H](CCCCN)C(=O)N[C@@H](CO)C(=O)N[C@@H](CO)C(=O)N[C@@H](CC(N)=O)C(=O)N[C@@H](CCC(=O)O)C(=O)N[C@@H](C)C(=O)O | 1700 nM | 1340 nM | 461 nM | 681 nM | 1420 nM | 7300 nM | 10 nM | > 75000 nM | – | 2260 nM | 9280 nM | 10100 nM
6 | GRLEYTLKDRRNFDI | > 77300 nM | – | 796 nM | 9900 nM | 4920 nM | 5000 nM | 7250 nM | 30 nM | 168 nM | 4960 nM | – | –
7 | TSITSLYQLENYTN | 9950 nM | – | 6050 nM | > 95200 nM | 26800 nM | 1100 nM | – | 81300 nM | 99 nM | 6060 nM | – | > 17100 nM
8 | CC[C@H](C)[C@H](NC(=O)[C@@H](NC(=O)[C@@H](N)CO)C(C)C)C(=O)N[C@@H](CC(C)C)C(=O)N[C@@H](CC(C)C)C(=O)NCC(=O)N[C@@H](CCCNC(=N)N)C(=O)N[C@@H](Cc1c[nH]cn1)C(=O)N[C@@H](CO)C(=O)N[C@@H](CC(C)C)C(=O)N[C@@H](Cc1ccccc1)C(=O)N[C@@H](Cc1c[nH]cn1)C(=O)N1CCC[C@H]1C(=O)N[C@@H](CCC(=O)O)C(=O)N[C@@H](CC(=O)O)C(=O)O [SVILLGRHSLFHPED] | 5220 nM | 12600 nM | 16100 nM | 13000 nM | 500 nM | 96 nM | 717 nM | 1400 nM | – | – | 4410 nM | 96 nM
9 | HPLYNMSLLKHQSLR | 199 nM | 499 nM | 219 nM | > 14900 nM | 382 nM | – | 232 nM | 13000 nM | 472 nM | 1280 nM | 8.4 nM | 546 nM
10 | CC[C@H](C)[C@H](NC(=O)[C@H](Cc1c[nH]c2ccccc12)NC(=O)[C@@H](NC(=O)[C@@H](NC(=O)[C@H](CO)NC(=O)[C@H](CC(C)C)NC(=O)[C@@H](N)[C@@H](C)O)C(C)C)[C@@H](C)O)C(=O)NCC(=O)N[C@@H](C)C(=O)N[C@@H](C)C(=O)N1CCC[C@H]1C(=O)N[C@@H](CC(C)C)C(=O)N[C@H](C(=O)N[C@@H](CC(C)C)C(=O)N[C@@H](CO)C(=O)O)[C@@H](C)CC | 5.4 nM | – | 31 nM | 6030 nM | 840 nM | 6860 nM | 3.1 nM | > 81800 nM | 97 nM | 16 nM | – | 642 nM
11 | CC[C@H](C)[C@H](NC(=O)[C@H](CCCNC(=N)N)NC(=O)[C@@H](N)[C@@H](C)O)C(=O)N[C@@H](Cc1ccc(O)cc1)C(=O)N[C@@H](CC(N)=O)C(=O)N[C@H](C(=O)N[C@H](C(=O)NCC(=O)N[C@H](C(=O)N[C@@H](CC(C)C)C(=O)N[C@@H](CCCNC(=N)N)C(=O)NCC(=O)N[C@@H](C)C(=O)N[C@H](C(=O)N[C@@H](CCC(=O)O)C(=O)O)C(C)C)[C@@H](C)O)[C@@H](C)CC)C(C)C | 2900 nM | 6.3 nM | 32 nM | 17500 nM | 70 nM | 45 nM | 14 nM | 33300 nM | – | 4810 nM | 447 nM | 1460 nM
12 | ITDSRVLERYLLEAK | > 78900 nM | 1300 nM | – | > 42200 nM | 967 nM | 5280 nM | 1570 nM | 6500 nM | 18 nM | 7500 nM | – | > 14700 nM
13 | SNLELLRISLLLIQS | 3420 nM | – | 50100 nM | > 91900 nM | > 33300 nM | 23700 nM | 72 nM | 43500 nM | 59 nM | 642 nM | – | –
14 | CC[C@H](C)[C@H](NC(=O)[C@H](CCC(N)=O)NC(=O)[C@@H](N)CCCNC(=N)N)C(=O)N[C@@H](Cc1ccc(O)cc1)C(=O)N[C@H](C(=O)N[C@@H](C)C(=O)N[C@@H](C)C(=O)N[C@@H](Cc1ccccc1)C(=O)N[C@H](C(=O)N[C@H](C(=O)N[C@@H](CCC(N)=O)C(=O)N[C@@H](C)C(=O)N[C@@H](C)C(=O)N[C@@H](C)C(=O)N[C@@H](CCC(=O)O)C(=O)O)C(C)C)[C@@H](C)O)C(C)C | 91 nM | 1.2 nM | – | 6810 nM | 36 nM | 35 nM | 3.7 nM | 28300 nM | – | – | 47 nM | 524 nM
